This is an account of results in ChEMBL document CHEMBL1143028, “Preparation of cyclic 2',3'-carbamate derivatives of erythromycin macrolide antibiotics” (Bioorg Med Chem, 2007).

Active and inactive are the calls of the source. The calls are words filed in the database; no cut-off is given here.

The subject of one assay is Staphylococcus aureus. Kind of assay: Antibacterial activity against Staphylococcus aureus ATCC 25923 at […]. The class given is functional, organism-based.
The test system of another assay is Escherichia coli. Kind of assay: Antibacterial activity against Escherichia coli ATCC 25922 at […]. It counts as functional, organism-based.

On to `C=CCOC(=O)O[C@H]1[C@H](C)O[C@@H](O[C@H]2[C@H](C)[C@@H](O[C@@H]3O[C@H](C)C[C@H]4[C@H]3OC(=O)N4C)[C@](C)(OC)C[C@@H](C)C(=O)[C@H](C)[C@@H]3OC(=O)O[C@]3(C)[C@@H](CC)OC(=O)[C@@H]2C)C[C@@]1(C)OC`, for which the outcome in the assay with Staphylococcus aureus and in the assay with Escherichia coli was inactive.
`CC[C@H]1OC(=O)[C@H](C)C(=O)[C@H](C)[C@@H](O[C@@H]2O[C@H](C)C[C@H]3[C@H]2OC(=O)N3C)[C@](C)(OC)C[C@@H](C)C(=O)[C@H](C)[C@@H]2N(c3ccc(N4CCOCC4)c(F)c3)C(=O)O[C@@]21C`: the outcome with Staphylococcus aureus and in the assay with Escherichia coli was inactive.
On to `CC[C@H]1OC(=O)[C@H](C)C(=O)[C@H](C)[C@@H](O[C@@H]2O[C@H](C)C[C@H]3[C@H]2OC(=O)N3C)[C@](C)(OC)C[C@@H](C)C(=O)[C@H](C)[C@@H]2OC(=O)O[C@]12C`, for which the result in the assay on Staphylococcus aureus and in the assay on Escherichia coli was inactive.
On to `CC[C@H]1OC(=O)[C@H](C)[C@@H](O)[C@H](C)[C@@H](O[C@@H]2O[C@H](C)C[C@H]3[C@H]2OC(=O)N3C)[C@](C)(OC)C[C@@H](C)C(=O)[C@H](C)[C@@H]2OC(=O)O[C@]12C`, for which the result in the assay with Staphylococcus aureus and in the assay on Escherichia coli was inactive.
In the case of `C=CCOC(=O)O[C@H]1[C@H](C)[C@@H](O[C@@H]2O[C@H](C)C[C@H]3[C@H]2OC(=O)N3C)[C@](C)(OC)C[C@@H](C)C(=O)[C@H](C)[C@@H]2OC(=O)O[C@]2(C)[C@@H](CC)OC(=O)[C@@H]1C`, the outcome in the assay on Staphylococcus aureus and in the assay on Escherichia coli was inactive.
Consider `CC[C@H]1OC(=O)[C@H](C)[C@@H](O[C@H]2C[C@@](C)(OC)[C@@H](O)[C@H](C)O2)[C@H](C)[C@@H](O[C@@H]2O[C@H](C)C[C@H]3[C@H]2OC(=O)N3C)[C@](C)(OC)C[C@@H](C)C(=O)/C(C)=C/[C@]1(C)O`, for which the outcome in the assay on Staphylococcus aureus and with Escherichia coli was inactive.
`CC[C@H]1OC(=O)[C@H](C)[C@@H](O[C@H]2C[C@@](C)(OC)[C@@H](O)[C@H](C)O2)[C@H](C)[C@@H](O[C@@H]2O[C@H](C)C[C@H]3[C@H]2OC(=O)N3C)[C@](C)(OC)C[C@@H](C)C(=O)[C@H](C)[C@@H]2OC(=O)O[C@]12C`: the outcome with Staphylococcus aureus and in the assay on Escherichia coli was inactive.
